Laboratory results taken from patent US20040180322A1, “Regional intestinal permeability model” (priority 2000, published 2004).
Where a SMILES comes first, the peptide text is derived from it. [ ]: non-standard residue; d: D form. Sar = CNCC(=O)O

Legend:
[1] = test system: Caco-2; test: Caco-2 transepithelial transport with apical FaSSIF versus Mes (Experiment Three); assay type: in vitro ADME; details: for increase of A→B permeability with apical FaSSIF / increase of B→A permeability with apical FaSSIF: Caco-2, apical FaSSIF pH 6.5 compared with Mes pH 6.5
Protocol: Methods. […] Caco-2 transepithelial transport studies were performed using a standardized 24-well transwell format (20-24 day culture/passage 30-40). The transport experiments were performed using 0.3 mL apical solution either Ringers (pH 7.4), Mes (pH 6.5), or FaSSIF (pH 6.5, calcium free) and 1.2 mL basolateral solution (Ringer's buffer: pH 7.4, 290 mOsm/kg, 25 mM glucose). […] and B→A permeability was studied at 37° C., 50 opm, 95% humidity, and 5% CO2 using a 100 μM donor concentration with 1% DMSO. Monolayer integrity was evaluated by TEER measurements. Rabbit regional intestinal permeability studies were conducted using the Ussing side-by-side diffusion chamber, with volumes of 1.5 mL on each side. Intestinal segments (duodenum/jejunum/ileum/descending colon) were harvested from male New Zealand white rabbits (2.5-3.0 kg), stripped of the muscle layers and mounted in the chambers.

[2] = Caco-2 transepithelial transport at different apical pH, buffers and CO2 incubation (Experiment Two); assay type: in vitro ADME; details: human
Protocol: (§1) Methods. In vitro permeability of various transport marker compounds was investigated using different apical pH's (pH 7.4 and pH 6.5), different buffers (Ringers, Mes, and Hepes), and different incubation (with or without CO2) conditions. Caco-2 transepithelial transport studies were performed using a standardized 24-well transwell format (20-24 day culture/passage 30-40). The apical (A, 0.3 mL volume) and basolateral (B, 1.2 mL volume) reservoirs were filled with Ringer's buffer (pH 7.4, 290 mOsm/kg), containing 25 mM glucose. A→B and B→A permeability was studied at 37° C., 50 opm, 95% humidity, and 5% CO2 using a 100 μM donor concentration with 1% DMSO. Monolayer integrity was evaluated by transepithelial electrical resistance (TEER) measurements.

[3] = test system: Caco-2; test: as above; assay type: in vitro ADME; details: for increase of A to B Effective Permeability (Peff) on change of apical pH from 7.4 to 6.5 / decrease of A to B Effective Permeability (Peff) on change of apical pH from 7.4 to 6.5: Caco-2, apical pH 6.5 vs 7.4; for decrease of A to B Peff in the absence of CO2: Caco-2, pH 7.4 Ringers without CO2, pH shifted to 7.8-8.0
Protocol: as §1

[4] = test system: Caco-2; details: cited from earlier work; for range of in vitro permeability values in inter-laboratory Caco-2: values from 10 references with various culture and transport conditions
[5] = Caco-2 monolayer A to B permeability of marker compounds, standardized conditions (Experiment One); details: human, Caco-2, pH 7.4
[6] = test system: Caco-2; test: Inter-laboratory Caco-2 permeability values of marker compounds collected from references; assay type: in vitro ADME; details: for variability of in vitro permeability values in inter-laboratory Caco-2: values from 10 references with various culture and transport conditions

Compound: Nc1nc2c(ncn2COCCO)c(=O)[nH]1 [acyclovir]
- increase of A→B permeability with apical FaSSIF [1]: 3 fold

Compound: COc1cc([C@@H]2c3cc4c(cc3[C@@H](O[C@@H]3O[C@@H]5CO[C@@H](C)O[C@H]5[C@H](O)[C@H]3O)[C@H]3COC(=O)[C@H]23)OCO4)cc(OC)c1O [etoposide]
- efflux ratio at 90 min, 100 μM ([2]; Caco-2, apical pH 6.5): 12
- efflux ratio at 90 min, 100 μM ([2]; Caco-2, apical pH 7.4): 8
- increase of A→B permeability with apical FaSSIF [1]: 2 fold

Compound: CN(CC(=O)O)C(=O)CN [glycylsarcosine] (H-Gly-[Sar]-OH)
- increase of A to B Effective Permeability (Peff) on change of apical pH from 7.4 to 6.5 [3]: 6 ×
- decrease of A to B Peff in the absence of CO2 [3]: 2 ×
- decrease of A→B permeability with apical FaSSIF ([1]; Caco-2, FaSSIF in apical compartment): 2 fold

Compound: CC(C)Cc1ccc(C(C)C(=O)O)cc1 (stereo not drawn) [ibuprofen]
- increase of A to B Effective Permeability (Peff) on change of apical pH from 7.4 to 6.5 [3]: 3 ×

Compound: CC(C(=O)O)c1cccc(C(=O)c2ccccc2)c1 (stereo not drawn) [ketoprofen]
- decrease of A to B Peff in the absence of CO2 [3]: 2 ×

Compound: OC[C@@H](O)[C@@H](O)[C@H](O)[C@H](O)CO [mannitol]
- range of in vitro Apparent Permeability (Papp) values from published references ([4]; published references): 0.019-6.55 ×10^−6 cm/s
- range of in vitro permeability values in inter-laboratory Caco-2 [4]: 0.38-3.23 ×10^−6 cm/s
- increase of A→B permeability with apical FaSSIF [1]: 3 fold
- increase of B→A permeability with apical FaSSIF [1]: 11 fold
- Papp A→B at 90 min, 100 μM [5]: 0.461 ×10⁻⁶ cm/s
- variability of in vitro Apparent Permeability (Papp) values from published references ([6]; published references): 345 fold
- variability of in vitro permeability values in inter-laboratory Caco-2 [6]: 9 fold

Compound: CC(C)NCC(O)COc1cccc2ccccc12 (stereo not drawn) [propranolol]
- range of in vitro permeability values in inter-laboratory Caco-2 [4]: 14.8-110 ×10^−6 cm/s
- efflux ratio at 90 min, 100 μM ([2]; Caco-2, apical pH 6.5): > 4
- decrease of A to B Effective Permeability (Peff) on change of apical pH from 7.4 to 6.5 [3]: 3 ×
- Papp A→B at 90 min, 100 μM [5]: 28.7 ×10⁻⁶ cm/s
- variability of in vitro permeability values in inter-laboratory Caco-2 [6]: 7 fold

Compound: NC(=O)c1ncn([C@@H]2O[C@H](CO)[C@@H](O)[C@H]2O)n1 [ribavirin]
- increase of A→B permeability with apical FaSSIF [1]: 5 fold

Compound: CC[C@]1(O)C[C@@H]2CN(CCc3c([nH]c4ccccc34)[C@@](C(=O)OC)(c3cc4c(cc3OC)N(C)[C@H]3[C@@](O)(C(=O)OC)[C@H](OC(C)=O)[C@]5(CC)C=CCN6CC[C@]43[C@@H]65)C2)C1 [vinblastine]
- efflux ratio at 90 min, 100 μM ([2]; Caco-2, apical pH 6.5): 32
- efflux ratio at 90 min, 100 μM ([2]; Caco-2, apical pH 7.4): 4
- decrease of A to B Effective Permeability (Peff) on change of apical pH from 7.4 to 6.5 [3]: 5 ×

Compound: Polyethylene Glycol [PEG 4000]
- increase of A→B permeability with apical FaSSIF [1]: 2 fold
- increase of B→A permeability with apical FaSSIF [1]: 2 fold
